Data reported in US11578074B2, “Nitrogenous heterocyclic compound, preparation method, intermediate, composition, and application” (SHANGHAI PHARMACEUTICALS HOLDING CO., LTD., priority 2017, dated 2023).
Read-outs that look alike come from different tables or passages of the source.

Experiments:
CYP3A4 = molecular target: T1, CYP3A4 (Homo sapiens, UniProt P08684); assay: Direct inhibition (DI) of CYP3A4 in human liver microsomes; format: in vitro ADME; conditions: human liver microsomes 0.2 mg/mL, 10 μM compound
T1 construct: A system of 100 μL human liver microsomes; from tissue; host or cells: human liver microsomes
Method in brief: (§1)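 Pooled human liver microsomes (0.2 mg/mL) with 1 mM NADPH and 10 μM test compound were incubated for 20 min with a mixed probe-substrate cocktail (midazolam 10 μM, testosterone 100 μM, dextromethorphan 10 μM, diclofenac 20 μM, phenacetin 100 μM, mephenytoin 100 μM). Relative enzyme activity came from metabolite formation versus DMSO control.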

CYP2C9 = molecular target: T2, CYP2C9 (Homo sapiens, UniProt P11712); assay: Direct inhibition (DI) of CYP2C9 in human liver microsomes; format: in vitro ADME; conditions: probe Diclofenac, human liver microsomes 0.2 mg/mL, 10 μM compound, read-out: Direct inhibition (DI) 2C9 (Diclofenac)
T2 construct: A system of 100 μL human liver microsomes; from tissue; host or cells: human liver microsomes
Method in brief: as §1

CYP1A2 = molecular target: T3, CYP1A2 (Homo sapiens, UniProt P05177); assay: Direct inhibition (DI) of CYP1A2 in human liver microsomes; format: in vitro ADME; conditions: probe Phenacetin, human liver microsomes 0.2 mg/mL, 10 μM compound, read-out: Direct inhibition (DI) 1A2 (Phenacetin)
T3 construct: A system of 100 μL human liver microsomes; from tissue; host or cells: human liver microsomes
T3 sequence (P05177 1-516): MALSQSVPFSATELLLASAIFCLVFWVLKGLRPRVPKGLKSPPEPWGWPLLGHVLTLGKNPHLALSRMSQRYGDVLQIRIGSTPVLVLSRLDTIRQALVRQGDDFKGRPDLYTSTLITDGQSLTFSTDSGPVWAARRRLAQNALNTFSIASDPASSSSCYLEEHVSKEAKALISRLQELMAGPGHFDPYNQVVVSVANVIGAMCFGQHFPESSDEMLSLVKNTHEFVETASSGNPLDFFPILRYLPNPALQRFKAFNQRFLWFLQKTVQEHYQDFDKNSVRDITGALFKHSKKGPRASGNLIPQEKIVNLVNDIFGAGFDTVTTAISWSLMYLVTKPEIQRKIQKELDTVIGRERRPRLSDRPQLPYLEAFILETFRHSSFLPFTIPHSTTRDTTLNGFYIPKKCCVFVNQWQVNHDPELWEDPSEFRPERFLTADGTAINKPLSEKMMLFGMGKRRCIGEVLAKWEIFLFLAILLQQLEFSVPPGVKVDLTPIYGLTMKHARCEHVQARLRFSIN
Method in brief: as §1

CYP2C19 = molecular target: T4, CYP2C19 (Homo sapiens, UniProt P33261); assay: Direct inhibition (DI) of CYP2C19 in human liver microsomes; format: in vitro ADME; conditions: probe Mephenytoin, human liver microsomes 0.2 mg/mL, 10 μM compound, read-out: Direct inhibition (DI) 2C19 (Mephenytoin)
T4 construct: A system of 100 μL human liver microsomes; from tissue; host or cells: human liver microsomes
Method in brief: as §1

CYP2D6 = molecular target: T5, CYP2D6 (Homo sapiens, UniProt P10635); assay: Direct inhibition (DI) of CYP2D6 in human liver microsomes; format: in vitro ADME; conditions: probe Dextromethorphan, human liver microsomes 0.2 mg/mL, 10 μM compound, read-out: Direct inhibition (DI) 2D6 (Dextromethorphan)
T5 construct: A system of 100 μL human liver microsomes; from tissue; host or cells: human liver microsomes
Method in brief: as §1

[1] = test system: N87 (human gastric cancer cell NCI-N87); assay: In vitro proliferation inhibition assay of cell lines (CellTiter-Glo), N87; format: cell-based; conditions: N87 cells, 72 hours
Method in brief: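 Cells seeded overnight (BT-474 8.8×10^4 cells/mL, N87 6.6×10^4 cells/mL), then exposed to 9 compound concentrations in duplicate for 72 hours at 37° C, 5% CO2. Viability read by CellTiter-Glo luminescence.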

[2] = test system: BT-474 (human breast cancer cell); assay: In vitro proliferation inhibition assay of cell lines (CellTiter-Glo), BT-474; format: cell-based; conditions: BT-474 cells, 72 hours
Method in brief: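 Cells were exposed to nine compound concentrations in duplicate for 72 h at 37 °C and 5% CO2. Viability was read with CellTiter-Glo reagent after equilibration at room temperature.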

ErbB2 kinase = molecular target: T6, ErbB2 kinase (Homo sapiens, UniProt P04626); assay: EGFR/ErbB2 enzymatic experiment (HTRF kinEASE-TK), ErbB2; format: biochemical; conditions: ErbB2 kinase 0.06 ng/μL, ATP 4 μM; read-out: Kinase IC50 (nM) in vitro ErbB2
T6 construct: The final concentration of ErbB2 kinase was 0.06 ng/μL

EGFR kinase = EGFR kinase (Homo sapiens, UniProt P00533); assay: EGFR/ErbB2 enzymatic experiment (HTRF kinEASE-TK), EGFR; format: biochemical; conditions: EGFR kinase 0.06 units/μL, ATP 1.65 μM; read-out: Kinase IC50 (nM) in vitro EGFR
[3] = test system: HER2 overexpressing human gastric cancer NCI-N87 nude mice xenograft; assay: HER2 overexpressing human gastric cancer NCI-N87 nude mice xenograft model; format: in vivo; conditions: 10 mg/kg, continuous oral administration for 21 days
Text: We have established nude mice xenograft model for HER2 overexpression.

[4] = In vivo pharmacokinetics study in cynomolgus monkeys; conditions: cynomolgus monkeys, oral 15 mg/kg
Protocol: 6 male cynomolgus monkeys (purchased from Guangxi Guidong Primate Development Experiment Co., Ltd., certificate No. SCXK (Guangxi) 2013-0057) were divided into 2 groups with 3 in each group, and all of the animals were fasted for about 12 hours before administration. One group was orally administrated with 15 mg/kg of the final product of Embodiment 22 (deionized water was added, followed by sonication for 30 minutes and stirring for 3 minutes, and a clear pale yellow dosing solution with a concentration of 3 mg/mL was prepared); one group was administrated with 15 mg/kg of Pyrotinib (deionized water was added, followed by sonication for 30 minutes and stirring for 4 minutes, and a clear yellow dosing solution with a concentration of 3 mg/mL was prepared). Blood samples were collected before administration and at 15, 30, 60, 90, 120, 150, 180, 240, 360, 480, 720 and 1440 minutes respectively after administration.
(§2) 1.0 mL of blood was collected from each animal through jugular vein puncture at each time point and heparin sodium was used for anticoagulation. The blood samples were collected and placed in labeled centrifuge tubes, and plasma was centrifuged (centrifugation conditions: 3500 rpm, 10 minutes, 2-8° C.). To 50 μL of plasma sample was added 300 μL of acetonitrile containing internal standard (Propranolol, 25 ng/mL) to precipitate the protain. After vortexing for 10 minutes and centrifuging at 6000 g for 20 minutes, 100 μL of supernatant was taken and injected into a 96-well plate. The drug concentration in plasma was determined by UPLC/MS-MS.

[5] = In vivo pharmacokinetics study in beagle dogs; conditions: beagle dogs, oral 15 mg/kg
Protocol: 6 male beagle dogs (purchased from Beijing Marshall Biotechnology Co., Ltd., certificate No. SCXK (Beijing) 2016-0001) were divided into 2 groups with 3 dogs in each group, and all of the animals were fasted for about 12 hours before administration. One group was orally administrated with 15 mg/kg of the final product of Embodiment 22 (deionized water was added, followed by sonication for 29 minutes and stirring for 4 minutes, and a clear pale yellow dosing solution with a concentration of 3 mg/mL was prepared); the other group was orally administrated with 15 mg/kg of Pyrotinib (deionized water was added, followed by sonication for 28 minutes and stirring for 5 minutes, and a clear yellow dosing solution with a concentration of 3 mg/mL was prepared). Blood samples were collected before administration and at 15, 30, 60, 90, 120, 150, 180, 240, 360, 480, 720 and 1440 minutes respectively after administration.
as §2

[6] = probe Midazolam, read-out: Direct inhibition (DI) 3A4 (Midazolam)
[7] = probe Testosterone, read-out: Direct inhibition (DI) 3A4 (testosterone)

T1 sequence (P08684 whole entry): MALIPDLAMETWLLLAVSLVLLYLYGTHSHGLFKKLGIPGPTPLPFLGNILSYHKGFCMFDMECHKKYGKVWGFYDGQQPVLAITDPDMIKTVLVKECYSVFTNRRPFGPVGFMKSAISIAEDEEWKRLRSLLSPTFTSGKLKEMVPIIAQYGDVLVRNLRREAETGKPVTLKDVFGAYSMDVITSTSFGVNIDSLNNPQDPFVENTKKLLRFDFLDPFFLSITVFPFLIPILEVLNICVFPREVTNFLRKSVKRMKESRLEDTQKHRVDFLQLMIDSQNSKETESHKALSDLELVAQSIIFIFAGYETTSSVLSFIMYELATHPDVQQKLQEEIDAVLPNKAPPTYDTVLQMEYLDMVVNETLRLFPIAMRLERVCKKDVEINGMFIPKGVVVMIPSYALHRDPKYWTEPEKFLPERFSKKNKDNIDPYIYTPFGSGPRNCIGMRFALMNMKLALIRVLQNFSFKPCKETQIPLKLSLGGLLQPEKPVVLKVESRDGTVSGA
T4 sequence (P33261 whole entry): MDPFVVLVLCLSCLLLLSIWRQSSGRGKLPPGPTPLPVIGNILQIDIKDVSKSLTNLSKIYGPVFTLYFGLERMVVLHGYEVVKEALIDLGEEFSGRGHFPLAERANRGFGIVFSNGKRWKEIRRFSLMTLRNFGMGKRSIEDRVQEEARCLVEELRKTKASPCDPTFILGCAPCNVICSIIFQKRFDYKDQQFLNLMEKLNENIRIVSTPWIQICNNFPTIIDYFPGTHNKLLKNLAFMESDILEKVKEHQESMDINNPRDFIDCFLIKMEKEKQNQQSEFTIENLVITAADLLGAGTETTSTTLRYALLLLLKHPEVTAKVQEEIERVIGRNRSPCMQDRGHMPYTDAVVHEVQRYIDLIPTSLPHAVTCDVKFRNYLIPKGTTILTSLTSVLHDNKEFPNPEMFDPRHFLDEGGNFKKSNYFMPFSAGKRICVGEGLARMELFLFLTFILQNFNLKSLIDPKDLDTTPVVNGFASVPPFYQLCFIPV
T5 sequence (P10635 whole entry): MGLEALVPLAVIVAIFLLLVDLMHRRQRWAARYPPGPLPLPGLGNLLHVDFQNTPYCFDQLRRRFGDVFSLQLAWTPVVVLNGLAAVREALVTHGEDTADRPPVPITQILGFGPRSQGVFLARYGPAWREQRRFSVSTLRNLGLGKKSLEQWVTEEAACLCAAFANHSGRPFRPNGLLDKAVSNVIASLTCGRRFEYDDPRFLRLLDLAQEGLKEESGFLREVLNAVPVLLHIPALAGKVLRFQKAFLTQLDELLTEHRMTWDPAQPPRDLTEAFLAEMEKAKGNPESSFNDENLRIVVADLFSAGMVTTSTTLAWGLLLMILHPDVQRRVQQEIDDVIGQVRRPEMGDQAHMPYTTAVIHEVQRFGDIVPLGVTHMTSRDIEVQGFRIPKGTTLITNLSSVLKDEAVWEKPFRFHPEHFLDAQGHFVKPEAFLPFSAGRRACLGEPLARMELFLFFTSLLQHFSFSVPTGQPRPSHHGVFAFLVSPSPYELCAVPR
T2 sequence (P11712 whole entry): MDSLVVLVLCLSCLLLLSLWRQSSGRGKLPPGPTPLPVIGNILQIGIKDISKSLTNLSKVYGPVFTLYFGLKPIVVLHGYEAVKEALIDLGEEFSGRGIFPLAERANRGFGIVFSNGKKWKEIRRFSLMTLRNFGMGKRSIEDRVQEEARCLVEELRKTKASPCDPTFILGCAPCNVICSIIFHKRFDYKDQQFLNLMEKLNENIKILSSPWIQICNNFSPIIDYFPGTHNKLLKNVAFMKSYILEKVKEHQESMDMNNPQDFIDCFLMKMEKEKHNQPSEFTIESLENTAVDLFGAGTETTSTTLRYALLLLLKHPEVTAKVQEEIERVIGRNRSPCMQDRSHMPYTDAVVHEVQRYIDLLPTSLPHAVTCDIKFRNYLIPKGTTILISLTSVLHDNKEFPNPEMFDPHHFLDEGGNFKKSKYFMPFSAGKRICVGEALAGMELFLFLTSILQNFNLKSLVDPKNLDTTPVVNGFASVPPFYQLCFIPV
EGFR kinase, sequence (P00533 25-1210): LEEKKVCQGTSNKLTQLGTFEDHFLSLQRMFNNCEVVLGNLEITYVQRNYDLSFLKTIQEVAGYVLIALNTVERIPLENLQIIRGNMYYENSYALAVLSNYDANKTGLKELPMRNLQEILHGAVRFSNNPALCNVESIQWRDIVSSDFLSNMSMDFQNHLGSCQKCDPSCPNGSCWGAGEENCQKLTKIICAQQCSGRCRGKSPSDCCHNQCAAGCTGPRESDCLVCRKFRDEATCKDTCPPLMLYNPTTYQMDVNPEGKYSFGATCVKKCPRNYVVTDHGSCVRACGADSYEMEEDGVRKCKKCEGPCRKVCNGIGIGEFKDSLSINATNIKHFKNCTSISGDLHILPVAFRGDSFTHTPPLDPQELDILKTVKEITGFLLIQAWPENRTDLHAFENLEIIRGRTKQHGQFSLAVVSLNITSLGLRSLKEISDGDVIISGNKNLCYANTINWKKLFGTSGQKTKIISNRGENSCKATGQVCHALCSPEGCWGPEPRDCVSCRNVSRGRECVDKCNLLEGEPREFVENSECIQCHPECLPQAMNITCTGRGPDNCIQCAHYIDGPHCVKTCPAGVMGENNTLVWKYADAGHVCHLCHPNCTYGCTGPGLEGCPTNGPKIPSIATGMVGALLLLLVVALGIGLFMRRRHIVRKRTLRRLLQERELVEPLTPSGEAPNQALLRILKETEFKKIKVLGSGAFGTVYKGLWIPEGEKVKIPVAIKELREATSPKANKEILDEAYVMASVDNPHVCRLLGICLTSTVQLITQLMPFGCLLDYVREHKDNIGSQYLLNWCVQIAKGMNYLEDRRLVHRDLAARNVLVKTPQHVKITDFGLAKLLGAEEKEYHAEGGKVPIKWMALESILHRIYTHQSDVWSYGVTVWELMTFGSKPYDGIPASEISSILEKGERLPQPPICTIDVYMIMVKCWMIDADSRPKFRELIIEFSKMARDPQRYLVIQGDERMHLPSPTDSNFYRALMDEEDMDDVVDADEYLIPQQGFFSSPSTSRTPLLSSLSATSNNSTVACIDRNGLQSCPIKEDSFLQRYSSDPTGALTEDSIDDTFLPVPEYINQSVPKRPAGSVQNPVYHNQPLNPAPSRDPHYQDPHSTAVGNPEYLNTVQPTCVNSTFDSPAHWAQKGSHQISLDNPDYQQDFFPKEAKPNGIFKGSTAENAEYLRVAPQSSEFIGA
T6 sequence (P04626 23-1255): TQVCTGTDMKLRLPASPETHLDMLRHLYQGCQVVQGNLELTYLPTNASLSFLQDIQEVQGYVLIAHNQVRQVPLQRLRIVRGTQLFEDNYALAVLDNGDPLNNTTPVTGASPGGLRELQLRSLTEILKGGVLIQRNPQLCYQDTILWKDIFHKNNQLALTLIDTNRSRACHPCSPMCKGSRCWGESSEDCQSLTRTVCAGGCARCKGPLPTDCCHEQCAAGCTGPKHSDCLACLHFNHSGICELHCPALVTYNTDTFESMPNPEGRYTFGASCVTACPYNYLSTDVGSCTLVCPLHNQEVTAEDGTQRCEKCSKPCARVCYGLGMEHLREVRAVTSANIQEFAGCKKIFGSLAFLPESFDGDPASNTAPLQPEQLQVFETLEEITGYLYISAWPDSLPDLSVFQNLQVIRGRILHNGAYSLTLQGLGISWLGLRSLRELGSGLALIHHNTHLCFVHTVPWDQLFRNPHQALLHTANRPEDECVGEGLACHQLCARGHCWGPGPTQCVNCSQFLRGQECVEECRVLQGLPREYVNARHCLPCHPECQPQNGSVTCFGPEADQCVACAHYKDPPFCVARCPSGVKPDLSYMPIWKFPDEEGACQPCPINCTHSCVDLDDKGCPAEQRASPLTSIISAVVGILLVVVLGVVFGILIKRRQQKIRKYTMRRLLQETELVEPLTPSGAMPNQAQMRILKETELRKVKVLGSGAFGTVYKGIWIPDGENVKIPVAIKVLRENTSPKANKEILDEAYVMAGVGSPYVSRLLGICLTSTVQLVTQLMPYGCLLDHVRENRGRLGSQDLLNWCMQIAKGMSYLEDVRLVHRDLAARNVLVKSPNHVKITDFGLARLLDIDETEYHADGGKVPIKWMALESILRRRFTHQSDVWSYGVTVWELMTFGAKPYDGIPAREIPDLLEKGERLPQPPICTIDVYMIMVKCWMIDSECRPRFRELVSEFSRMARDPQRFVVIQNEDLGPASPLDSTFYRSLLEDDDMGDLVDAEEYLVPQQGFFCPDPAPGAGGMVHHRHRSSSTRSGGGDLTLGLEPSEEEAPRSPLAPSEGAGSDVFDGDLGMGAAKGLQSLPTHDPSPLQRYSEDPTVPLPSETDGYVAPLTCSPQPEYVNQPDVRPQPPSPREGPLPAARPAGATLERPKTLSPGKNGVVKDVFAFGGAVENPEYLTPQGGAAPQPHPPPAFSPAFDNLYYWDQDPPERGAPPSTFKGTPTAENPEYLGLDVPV

SMILES: CCOc1cc2ncnc(Nc3ccc(Oc4ccn5ncnc5c4)c(C)c3)c2cc1NC(=O)/C(F)=C/[C@@H]1CCCN1C [Final product of Embodiment 47]
- inhibition at 20 min, 10 µM (CYP3A4; [6]): 33%
- inhibition at 20 min, 10 µM (CYP3A4; [7]): 42%
- inhibition at 20 min, 10 µM (CYP2C9): 34%
- inhibition at 20 min, 10 µM (CYP1A2): 35%
- inhibition at 20 min, 10 µM (CYP2C19): 47%
- inhibition at 20 min, 10 µM (CYP2D6): 54%
- IC50 [1]: 3.8 nM
- IC50 [2]: 7.1 nM
- IC50 (ErbB2 kinase): 4.2 nM
- IC50 (EGFR kinase): 38.5 nM

SMILES: CCOc1cc2ncc(C#N)c(Nc3ccc(OCc4ccccn4)c(Cl)c3)c2cc1NC(=O)/C=C/CN(C)C [Neratinib, reference compound]
- tumor volume inhibition rate (GI %) [3]: 112.5%

SMILES: CCOc1cc2ncc(C#N)c(Nc3ccc(OCc4ccccn4)c(Cl)c3)c2cc1NC(=O)/C=C/[C@H]1CCCN1C [Pyrotinib, reference compound]
- inhibition at 20 min, 10 µM (CYP3A4; [6]): 15%
- inhibition at 20 min, 10 µM (CYP3A4; [7]): 22%
- inhibition at 20 min, 10 µM (CYP2C9): 26%
- inhibition at 20 min, 10 µM (CYP1A2): 22%
- oral absorption peak concentration [4]: 56.42 ng/mL
- AUC ([4]; male, cynomolgus monkey, plasma, read-out: AUC): 325 ng·h/mL
- peak oral absorption concentration [5]: 146.2 ng/mL
- AUC ([5]; male, dog, plasma, read-out: AUC): 1620 ng·h/mL
- inhibition at 20 min, 10 µM (CYP2C19): 43%
- inhibition at 20 min, 10 µM (CYP2D6): 55%
- tumor volume inhibition rate (GI %) [3]: 127.0%
